The term IC50 denotes the midpoint of a concentration-inhibition curve.

This data set in a line: In vitro cytotoxic assay, MDA-MB-231. Further: 0.1-25 µM tested. It is filed as cell-based. The following applies: human, MDA-MB-231 cells (breast cancer cell line); read-out: In vitro cytotoxic activity IC50, MBA-MB-231. On the procedure:
Skin normal fibroblastic cells were purchased from Lonza (Basel, Switzerland). […] All culture media were supplemented by 10% of FBS, 1% of penicillin–streptomycin and 2 mM glutamine.
Chemicals were solubilized in DMSO at a concentration of 10 mM (stock solution) and diluted in culture medium to the desired final concentrations. […] Cells were plated in 96-well plates (4000 cells/well). Twenty-four hours after seeding, the cells were exposed to chemicals. […] Image acquisition and analysis were performed using a Cellomics ArrayScan VTI/HCS Reader (ThermoScientific, Les Ulis, France). The survival percentages were calculated as the percentage of cell number after compound treatment over cell number after DMSO treatment. The relative IC50 values were calculated using the curve fitting XLfit 5.5.0.5 (idbs) integrated in Microsoft Excel as an add-on.
4.3.1. Cell culture. Skin normal fibroblastic cells are purchased from Lonza (Basel, Switzerland). Huh7- […]
from ATCC (American Type Culture Collection). […]
supplemented by 10% of FBS, 1% of penicillin-streptomycin and 2 mM glutamine.
4.3.2. Cytotoxic assay. Chemicals were solubilized in DMSO at a concentration of 10 mM (stock solution) and diluted in culture medium to the desired final concentrations. The dose effect cytotoxic assays (IC50 determination) were performed by increasing the concentrations of each chemical (final well […]
Cells were plated in 96-well plates
(4000 cells/well). Twenty-four hours after seeding, cells were exposed to chemicals. After 48h of treatment, cells were washed in PBS and fixed in cooled 90% ethanol/5% acetic acid for 20 min and the […]
Image acquisition and analysis were performed using a Cellomics ArrayScan VTI/HCS Reader (ThermoScientific). The survival percentages were calculated as the percentage of cell number after compound treatment over cell number after DMSO treatment. The relative IC50 were calculated using the curve fitting XLfit 5.5.0.5 (idbs) integrated in Microsoft Excel as an add-on. The 4 Parameter Logistic Model or Sigmoidal Dose-Response Model describing the sigmoid-shaped response pattern was used (fit = (A+[(B-A)/(1+[(C/x)^D])]) where fit is the response and X is the tested concentration of the compound. The lower asymptote is A (also referred to as the bottom of the curve or lower plateau or the min) and the upper asymptote is B (also referred to as the top of the curve or upper plateau or the max). The slope of the linear part of the curve is described by the factor D. The parameter C is the concentration corresponding to the response midway between A and B. C is called “relative IC50” because it refers to the maximum response obtained by a […]
The results are represented as the mean ± standard error (SE) calculated from at least three independent experiments.
`COC(=N)c1nc2cc3c(=O)n(Cc4ccccc4)cnc3cc2s1` [Compound 6a, Methyl 7-benzyl-8-oxo-7,8-dihydrothiazolo[4,5-g]quinazoline-2-carbimidate]: the IC50 at 48 h was found to be 20 µM.
For `COC(=N)c1nc2cc3ncn(Cc4ccccc4)c(=O)c3cc2s1` [Compound 6b, Methyl 7-benzyl-8-oxo-7,8-dihydrothiazolo[5,4-g]quinazoline-2-carbimidate] the value was 3 µM; for `COC(=N)c1nc2c(ccc3c(=O)n(Cc4ccccc4)cnc32)s1` [Compound 6c, Methyl 7-benzyl-6-oxo-6,7-dihydrothiazolo[5,4-h]quinazoline-2-carbimidate], 13 µM.
For `COC(=N)c1nc2ccc3c(=O)n(Cc4ccccc4)cnc3c2s1` [Compound 6d, Methyl 7-benzyl-6-oxo-6,7-dihydrothiazolo[4,5-h]quinazoline-2-carbimidate] the value was 11 µM; for `COC(=N)c1nc2cc3c(Nc4ccc(OC)cc4F)ncnc3cc2s1` [Compound 15a, Methyl 8-[(2-fluoro-4-methoxyphenyl)amino]thiazolo[4,5-g]quinazoline-2-carbimidate], 9 µM.
As for `COC(=N)c1nc2ccc3ncn(Cc4ccccc4)c(=O)c3c2s1` [Compound I, methyl 8-benzyl-9-oxo-8,9-dihydrothiazolo[5,4-f]quinazoline-2-carbimidate, reference compound], the IC50 at 48 h was found to be 21 µM.
For `COC(=N)c1nc2ccc3ncnc(Nc4ccc(OC)cc4F)c3c2s1` [Compound II, methyl 9-[(2-fluoro-4-methoxyphenyl)amino]thiazolo[5,4-f]quinazoline-2-carbimidate, reference compound] the value was 5 µM.
